Values after ≈ are worked out from the molar mass of the structure shown.
What was measured:
[1] = biological target: T1, E. coli K12 PBP3 (Escherichia coli, UniProt P0AD68); assay: biochemical; assay type: binding
T1 construct: made in house
Outline: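 Fluorescence polarization (ex 490/em 520 nm) competition of inhibitors against Bocillin-FL at 0.1 μM, read up to 60 min. Final PBP levels: E. coli PBP3 1.5 μM; A. baumannii PBP2 2.5 μM, PBP3 0.2 μM in Tris pH 8.0/NaCl/glycerol/Tween 20; N. gonorrhoeae PBP2 […] in Hepes pH 8.0/NaCl/glycerol. EC50 = concentration halving PBP-bound Bocillin-FL.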

[2] = biological target: T2, P. aeruginosa PBP3 (Pseudomonas aeruginosa, UniProt G3XD46); assay: Bocillin-FL fluorescence polarization competition binding assay, P. aeruginosa PBP3; settings: fluorescence polarization competition binding assay using Bocillin-FL
T2 construct: made in house
Outline: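 Binding of boronic acid inhibitors to purified Pseudomonas aeruginosa (PA01) PBP3 was measured by fluorescence polarization competition with Bocillin-FL, a fluorescent penicillin V. Reactions of 80 μl contained 0.75 μM PBP3 and 0.1 μM Bocillin-FL in 50 mM Hepes (pH 8.0), 300 mM NaCl and 5% (v/v) glycerol, in black 384-well plates. FP (Excitation 490 nm, Emission 520 nm) was read for up to 60 minutes. EC50 is the concentration that halves PBP-bound Bocillin-FL.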

[3] = test system: A. baumannii ATCC 19606; assay: Broth microdilution MIC in CAMHB; assay type: cell-based; settings: Acinetobacter baumannii, ATCC19606; MHB; read-out: Minimum Inhibitory Concentration, A. baumannii ATCC 19606
Outline: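 Hyper-permeable or efflux-deficient strains serve to probe outer-membrane penetration. Growth inhibition is scored visually after 16-20 h at 37° C in CAMHB, starting from 2-8×10^5 CFU/mL.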

[4] = test system: E. coli 901C; assay: Broth microdilution MIC in CAMHB; assay type: cell-based; settings: Escherichia coli; E. coli 901C (hyper-permeable); MHB; read-out: Minimum Inhibitory Concentration, E. coli 901C
Outline: (§1)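 Colonies from cation-adjusted Mueller Hinton agar are grown in broth (3-5 h, 37° C), adjusted by OD600, and added at 2-8×10^5 CFU/mL to 2-fold compound dilutions. After 16-20 h at 37° C, the lowest concentration without growth is taken as MIC.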

[5] = test system: E. coli AG100; assay: Broth microdilution MIC in CAMHB; assay type: cell-based; settings: Escherichia coli; E. coli AG100 (wild-type parent); MHB; read-out: Minimum Inhibitory Concentration, E. coli AG100
Outline: as §1

[6] = test system: K. pneumoniae 848844 producing SHV-11 and KPC-2; assay: Broth microdilution MIC in CAMHB; assay type: cell-based; settings: Klebsiella pneumoniae, read-out: Minimum Inhibitory Concentration, K. pneumoniae 848844
Outline: as §1

[7] = test system: K. pneumoniae UMM producing SHV-5 and KPC-2; assay: Broth microdilution MIC in CAMHB; assay type: cell-based; settings: Klebsiella pneumoniae, read-out: Minimum Inhibitory Concentration, K. pneumoniae UMM
Outline: as §1

[8] = test system: P. aeruginosa (ΔmexAB-oprM); assay: Broth microdilution MIC in CAMHB; assay type: cell-based; settings: Pseudomonas aeruginosa, read-out: Minimum Inhibitory Concentration, P. aeruginosa ΔmexAB-OprM
Outline: as §1

[9] = test system: P. aeruginosa ATCC 27853; assay: Broth microdilution MIC in CAMHB; assay type: cell-based; settings: Pseudomonas aeruginosa, ATCC27853; MHB; read-out: Minimum Inhibitory Concentration, P. aeruginosa ATCC 27853
Outline: as §1

T1 sequence (P0AD68 1-577): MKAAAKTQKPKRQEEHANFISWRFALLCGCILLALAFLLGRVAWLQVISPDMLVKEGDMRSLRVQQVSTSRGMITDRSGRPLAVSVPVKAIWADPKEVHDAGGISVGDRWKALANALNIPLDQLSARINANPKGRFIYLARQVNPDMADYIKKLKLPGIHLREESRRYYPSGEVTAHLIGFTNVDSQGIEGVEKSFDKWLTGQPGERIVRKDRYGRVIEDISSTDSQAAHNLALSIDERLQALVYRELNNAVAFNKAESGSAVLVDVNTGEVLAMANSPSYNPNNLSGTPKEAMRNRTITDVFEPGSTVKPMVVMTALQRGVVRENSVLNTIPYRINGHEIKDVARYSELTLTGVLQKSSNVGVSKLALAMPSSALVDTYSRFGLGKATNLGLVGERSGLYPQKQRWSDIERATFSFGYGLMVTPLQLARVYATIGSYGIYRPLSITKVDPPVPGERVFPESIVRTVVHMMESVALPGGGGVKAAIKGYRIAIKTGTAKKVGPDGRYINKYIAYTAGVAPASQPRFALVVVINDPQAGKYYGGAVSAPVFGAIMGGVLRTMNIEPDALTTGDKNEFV
T2 sequence (G3XD46 whole entry): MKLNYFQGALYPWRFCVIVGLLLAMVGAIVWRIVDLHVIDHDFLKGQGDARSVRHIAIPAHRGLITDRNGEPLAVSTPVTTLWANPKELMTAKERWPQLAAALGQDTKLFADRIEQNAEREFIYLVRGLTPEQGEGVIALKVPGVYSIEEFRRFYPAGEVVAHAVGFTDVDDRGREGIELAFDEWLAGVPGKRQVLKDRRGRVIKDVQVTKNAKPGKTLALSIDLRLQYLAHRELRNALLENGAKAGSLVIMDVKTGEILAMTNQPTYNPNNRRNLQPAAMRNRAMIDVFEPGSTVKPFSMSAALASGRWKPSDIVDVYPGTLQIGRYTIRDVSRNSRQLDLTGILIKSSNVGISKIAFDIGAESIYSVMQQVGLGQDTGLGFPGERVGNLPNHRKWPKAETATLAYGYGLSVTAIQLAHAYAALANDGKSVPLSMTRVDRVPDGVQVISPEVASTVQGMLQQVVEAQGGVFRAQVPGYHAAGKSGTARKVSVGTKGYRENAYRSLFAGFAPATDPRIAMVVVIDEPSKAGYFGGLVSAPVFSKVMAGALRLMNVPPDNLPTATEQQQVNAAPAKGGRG

O=C(O)c1c(F)ccc2c1OB(O)[C@@H](NC(=O)C(NC(=O)N1CCN(CCF)C(=O)C1=O)c1c(F)cc(O)cc1F)C2 (stereo partly drawn) [Example 129, (3R)-3-(2-(2,6-difluoro-4-hydroxyphenyl)-2-(4-(2-fluoroethyl)-2,3-dioxopiperazine-1-carboxamido)acetamido)-7-fluoro-2-hydroxy-3,4-dihydro-2H-benzo[e][1,2]oxaborinine-8-carboxylic acid]
EC50 [1]: < 30 µM | P. aeruginosa PBP3 Potency [2]: D (D represents a potency <10 μM) | MIC [3]: > 128 µg/mL | MIC [4]: 0.5 to 1 µg/mL (≈ 0.839 to 1.68 µM) | MIC [5]: 32 to 64 µg/mL (≈ 53.7 to 107 µM) | MIC [6]: 32 to 64 µg/mL (≈ 53.7 to 107 µM) | MIC [7]: 32 to 64 µg/mL (≈ 53.7 to 107 µM) | MIC [8]: 32 to 64 µg/mL (≈ 53.7 to 107 µM) | MIC [9]: > 128 µg/mL

CCN1CCN(C(=O)N[C@@H](C(=O)N[C@H]2Cc3cccc(C(=O)O)c3OB2O)c2ccc(C(=O)O)cc2Cl)C(=O)C1=O (single isomer, unassigned) [Example 151]
EC50 [1]: < 30 µM | P. aeruginosa PBP3 Potency [2]: D (D represents a potency <10 μM) | MIC [3]: > 128 µg/mL | MIC [4]: < 0.25 µg/mL | MIC [5]: 32 to 64 µg/mL (≈ 54.5 to 109 µM) | MIC [6]: > 128 µg/mL | MIC [7]: > 128 µg/mL | MIC [8]: 8 to 16 µg/mL (≈ 13.6 to 27.3 µM) | MIC [9]: > 128 µg/mL

CCN1CCN(C(=O)NC(C(=O)N[C@H]2Cc3cccc(C(=O)O)c3OB2O)c2ccc(C(=O)O)cc2F)C(=O)C1=O (stereo partly drawn) [Example 145, (3R)-3-(2-(4-carboxy-2-fluorophenyl)-2-(4-ethyl-2,3-dioxopiperazine-1-carboxamido)acetamido)-2-hydroxy-3,4-dihydro-2H-benzo[e][1,2]oxaborinine-8-carboxylic acid]
EC50 [1]: < 30 µM | P. aeruginosa PBP3 Potency [2]: D (D represents a potency <10 μM) | MIC [3]: > 128 µg/mL | MIC [4]: < 0.25 µg/mL | MIC [5]: 32 to 64 µg/mL (≈ 56.1 to 112 µM) | MIC [6]: > 128 µg/mL | MIC [7]: 32 to 64 µg/mL (≈ 56.1 to 112 µM) | MIC [8]: 8 to 16 µg/mL (≈ 14 to 28.1 µM) | MIC [9]: > 128 µg/mL

CCN1CCN(C(=O)N[C@H](C(=O)N[C@H]2Cc3cccc(C(=O)O)c3OB2O)c2ccc(C(=O)O)cc2)C(=O)C1=O (single isomer, unassigned) [Example 123]
EC50 [1]: < 30 µM | P. aeruginosa PBP3 Potency [2]: D (D represents a potency <10 μM) | MIC [3]: > 128 µg/mL | MIC [4]: < 0.25 µg/mL | MIC [5]: 32 to 64 µg/mL (≈ 57.9 to 116 µM) | MIC [6]: > 128 µg/mL | MIC [7]: > 128 µg/mL | MIC [8]: 8 to 16 µg/mL (≈ 14.5 to 29 µM) | MIC [9]: > 128 µg/mL

CS(=O)(=O)N1CCN(C(=O)N[C@H](C(=O)N[C@H]2Cc3cccc(C(=O)O)c3OB2O)c2c(F)cc(O)cc2F)C1=O (single isomer, unassigned) [Example 136]
EC50 [1]: 30 to 500 µM | P. aeruginosa PBP3 Potency [2]: B (B represents a potency between 30 μM and 500 μM inclusive) | MIC [3]: > 128 µg/mL | MIC [4]: 0.5 to 1 µg/mL (≈ 0.859 to 1.72 µM) | MIC [5]: > 128 µg/mL | MIC [6]: > 128 µg/mL | MIC [7]: > 128 µg/mL | MIC [8]: > 128 µg/mL | MIC [9]: > 128 µg/mL

NCCN1CCN(C(=O)N[C@@H](C(=O)N[C@H]2Cc3cccc(C(=O)O)c3OB2O)c2cc(F)c(O)c(F)c2F)C(=O)C1=O (single isomer, unassigned) [Example 168]
EC50 [1]: < 30 µM | P. aeruginosa PBP3 Potency [2]: D (D represents a potency <10 μM) | MIC [3]: > 128 µg/mL | MIC [4]: < 0.25 µg/mL | MIC [5]: 8 to 16 µg/mL (≈ 13.5 to 27 µM) | MIC [6]: 32 to 64 µg/mL (≈ 53.9 to 108 µM) | MIC [7]: 8 to 16 µg/mL (≈ 13.5 to 27 µM) | MIC [8]: 2 to 4 µg/mL (≈ 3.37 to 6.74 µM) | MIC [9]: 32 to 64 µg/mL (≈ 53.9 to 108 µM)

NCCN1CCN(C(=O)N[C@H](C(=O)N[C@H]2Cc3cccc(C(=O)O)c3OB2O)c2cc(Cl)c(O)c(Cl)c2)C(=O)C1=O (single isomer, unassigned) [Example 165]
EC50 [1]: 30 to 500 µM | P. aeruginosa PBP3 Potency [2]: D (D represents a potency <10 μM) | MIC [3]: > 128 µg/mL | MIC [4]: 2 to 4 µg/mL (≈ 3.29 to 6.58 µM) | MIC [5]: > 128 µg/mL | MIC [6]: > 128 µg/mL | MIC [7]: > 128 µg/mL | MIC [8]: 8 to 16 µg/mL (≈ 13.2 to 26.3 µM) | MIC [9]: > 128 µg/mL

CCN1CCN(C(=O)N[C@@H](C(=O)N[C@H]2Cc3cccc(C(=O)O)c3OB2O)c2ccc(C(=O)O)c(F)c2F)C(=O)C1=O (single isomer, unassigned) [Example 140]
EC50 [1]: < 30 µM | P. aeruginosa PBP3 Potency [2]: D (D represents a potency <10 μM) | MIC [3]: > 128 µg/mL | MIC [4]: < 0.25 µg/mL | MIC [5]: 32 to 64 µg/mL (≈ 54.4 to 109 µM) | MIC [6]: > 128 µg/mL | MIC [7]: 32 to 64 µg/mL (≈ 54.4 to 109 µM) | MIC [8]: 8 to 16 µg/mL (≈ 13.6 to 27.2 µM) | MIC [9]: > 128 µg/mL

Source: patent US20230114728A1 (Venatorx Pharmaceuticals, Inc., priority 2019, published 2023)
